In patent US8236762B2, “Peptide-cytotoxic conjugates” (IPSEN Pharma S.A.S., priority 2006, dated 2012):
Entries after “also recorded” stand apart in the source; their conditions may differ. Numbered stars: 1 amine (or outer) side, 2 acyl side, 3 side chain; on linkers, the order of the positions; unused ones are H or OH. Bridge positions count the residues as written; N and C are the ends. Square brackets hold non-standard residues; d marks the D form. Peptide text beside a SMILES is read from it. * marks the point of attachment. X1 = CC[C@@]1(O*)C(=O)OCc2c1cc1n(c2=O)Cc2cc3ccccc3nc2-1; Tyr(3-I) = N[C@@H](Cc1ccc(O)c(I)c1)C(=O)O; Glutaryl = O=C(CCCC(=O)[*:2])[*:1]; Abu = CC[C@H](N)C(=O)O; AEEA = NCCOCCOCC(=O)O

Columns and labels:
[1] = Half-life determination in human plasma (LC-MS); format: in vitro ADME; settings: 37° C.
Method in brief: (§1)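 Compound samples of about 50–500 μg/ml were added to 450 μl human or mouse plasma and incubated at 37 °C. Aliquots taken from 0 to 48 h were precipitated with acetonitrile. Supernatants were analysed by LC-MS (positive-mode ESI, C8 column, acetic acid water/acetonitrile gradient).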

[2] = target: T1, hSSTR-2 (Homo sapiens, UniProt P30874); assay: Somatostatin receptor radioligand binding, hSSTR-2 (CHO-K1 membranes); settings: read-out: Ki hSSTR2 ± (SEM)
T1 construct: expressed in transfected cells; host or cells: CHO-K1
T1 sequence (P30874 whole entry): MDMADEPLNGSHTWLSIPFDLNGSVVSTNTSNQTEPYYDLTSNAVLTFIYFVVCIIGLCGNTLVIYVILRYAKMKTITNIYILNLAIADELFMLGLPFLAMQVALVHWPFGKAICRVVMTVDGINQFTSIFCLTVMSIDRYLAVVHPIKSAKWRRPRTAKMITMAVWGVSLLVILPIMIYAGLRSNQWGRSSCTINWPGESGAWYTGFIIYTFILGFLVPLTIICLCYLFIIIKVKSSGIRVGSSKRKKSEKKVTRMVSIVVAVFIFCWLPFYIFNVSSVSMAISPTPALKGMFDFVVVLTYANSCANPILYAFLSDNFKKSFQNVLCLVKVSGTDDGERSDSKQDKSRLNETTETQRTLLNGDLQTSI
Procedure: (§3) Membranes for in vitro receptor binding assays were obtained by homogenizing (Polytron setting 6, 15 sec) CHO-K1 cells expressing human somatostatin receptor subtypes hSSTR-1, hSSTR-2, hSSTR-3, hSSTR-4 or hSSTR-5 in ice-cold 50 mM Tris-HCl. The homogenized cells were centrifuged twice at 39,000 g for 10 minutes with an intermediate resuspension in fresh buffer. The final pellets were resuspended in 10 mM Tris-HCl to prepare the cell membrane homogenate for use in the binding assay.
(§4) For the hSSTR-1, hSSTR-3, and hSSTR-4 assays, aliquots of the membrane preparations were incubated for 90 minutes at 25° C. with 0.05 nM [^125I-Tyr11]SRIF-14 in 50 mM HEPES (pH 7.4) buffer containing 0.2% BSA and 5 mM MgCl2. The final assay volume was 0.3 ml. For the hSSTR-2 and hSSTR-5 assays, [^125I]-[4-(2-hydroxyethyl)]-1-piperazinylacetyl-D-Phe-c(Cys-Tyr-D-Trp-Lys-Abu-Cys)-Thr-NH2 (0.05 nM) and [^125I]-D-Phe-c(Cys-Tyr-D-Trp-Lys-Val-Cys)-Thr-NH2 were employed as the radioligands, respectively.
(§5) The cell membrane homogenate was incubated with the radioligands for 90 minutes at 25° C. The incubations were terminated by rapid filtration through GF/C filters pre-soaked in 0.3% polyethylenimine using a Brandel® filtration manifold (Gaithersberg, Md., U.S.A.). Each tube and filter was washed three times with 5-ml aliquots of ice-cold buffer. Specific binding was defined as the total radioligand bound minus that bound in the presence of 1000 nM SRIF-14 (for hSSTR-1, hSSTR-3, hSSTR-4 or hSSTR-5), or 1000 nM DPhe-c(Cys-Tyr-D-Trp-Lys-Abu-Cys)-Thr-NH2 for hSSTR-2.

[3] = target: T2, hSSTR-5 (Homo sapiens, UniProt P35346); assay: Somatostatin receptor radioligand binding, hSSTR-5 (CHO-K1 membranes); settings: read-out: Ki hSSTR5 ± (SEM)
T2 construct: expressed in transfected cells; host or cells: CHO-K1
T2 sequence (P35346 whole entry): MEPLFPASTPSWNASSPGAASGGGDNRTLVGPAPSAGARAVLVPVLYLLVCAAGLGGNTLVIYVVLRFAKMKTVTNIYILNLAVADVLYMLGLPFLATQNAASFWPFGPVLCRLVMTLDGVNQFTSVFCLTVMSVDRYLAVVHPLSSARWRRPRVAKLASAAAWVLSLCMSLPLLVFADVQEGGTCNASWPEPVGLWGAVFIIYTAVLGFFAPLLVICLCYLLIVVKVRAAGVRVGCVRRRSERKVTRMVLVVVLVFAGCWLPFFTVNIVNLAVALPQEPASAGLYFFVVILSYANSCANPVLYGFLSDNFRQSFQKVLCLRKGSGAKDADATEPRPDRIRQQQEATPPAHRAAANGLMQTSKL
Procedure: as §3, §4, §5

[4] = target: T3, hSSTR-3 (Homo sapiens, UniProt P32745); assay: Somatostatin receptor radioligand binding, hSSTR-3 (CHO-K1 membranes); settings: read-out: Ki hSSTR3 ± (SEM)
T3 construct: expressed in transfected cells; host or cells: CHO-K1
T3 sequence (P32745 whole entry): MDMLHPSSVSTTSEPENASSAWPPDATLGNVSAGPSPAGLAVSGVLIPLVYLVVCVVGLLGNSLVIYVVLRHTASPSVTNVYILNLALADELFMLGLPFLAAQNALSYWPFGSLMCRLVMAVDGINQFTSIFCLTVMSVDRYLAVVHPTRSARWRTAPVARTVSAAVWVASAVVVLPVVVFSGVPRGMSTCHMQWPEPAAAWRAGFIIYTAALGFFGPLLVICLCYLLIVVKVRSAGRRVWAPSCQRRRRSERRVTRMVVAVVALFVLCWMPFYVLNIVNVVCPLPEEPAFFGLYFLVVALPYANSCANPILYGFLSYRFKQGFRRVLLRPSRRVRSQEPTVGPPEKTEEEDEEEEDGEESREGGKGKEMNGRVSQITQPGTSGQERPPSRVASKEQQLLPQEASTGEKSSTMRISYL
Procedure: as §3, §4, §5

[5] = Half-life determination in mouse plasma (LC-MS); format: in vitro ADME; settings: 37° C.
Method in brief: as §1

[6] = target: T4, hSSTR-4 (Homo sapiens, UniProt P31391); assay: Somatostatin receptor radioligand binding, hSSTR-4 (CHO-K1 membranes); settings: read-out: Ki hSSTR4 ± (SEM)
T4 construct: expressed in transfected cells; host or cells: CHO-K1
T4 sequence (P31391 whole entry): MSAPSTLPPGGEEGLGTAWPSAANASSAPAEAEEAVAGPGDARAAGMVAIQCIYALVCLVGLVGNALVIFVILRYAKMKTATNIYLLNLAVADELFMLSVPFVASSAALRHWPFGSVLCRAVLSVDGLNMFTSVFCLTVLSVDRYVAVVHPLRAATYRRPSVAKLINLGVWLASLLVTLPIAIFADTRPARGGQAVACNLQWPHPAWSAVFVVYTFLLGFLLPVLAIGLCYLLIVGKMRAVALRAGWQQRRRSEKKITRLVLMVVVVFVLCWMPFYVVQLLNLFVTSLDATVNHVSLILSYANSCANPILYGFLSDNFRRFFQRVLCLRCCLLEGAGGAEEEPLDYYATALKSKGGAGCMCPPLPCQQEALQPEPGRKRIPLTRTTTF
Procedure: as §3, §4, §5

[7] = target: T5, hSSTR-1 (Homo sapiens, UniProt P30872); assay: Somatostatin receptor radioligand binding, hSSTR-1 (CHO-K1 membranes); settings: read-out: Ki hSSTR1 ± (SEM)
T5 construct: expressed in transfected cells; host or cells: CHO-K1
T5 sequence (P30872 whole entry): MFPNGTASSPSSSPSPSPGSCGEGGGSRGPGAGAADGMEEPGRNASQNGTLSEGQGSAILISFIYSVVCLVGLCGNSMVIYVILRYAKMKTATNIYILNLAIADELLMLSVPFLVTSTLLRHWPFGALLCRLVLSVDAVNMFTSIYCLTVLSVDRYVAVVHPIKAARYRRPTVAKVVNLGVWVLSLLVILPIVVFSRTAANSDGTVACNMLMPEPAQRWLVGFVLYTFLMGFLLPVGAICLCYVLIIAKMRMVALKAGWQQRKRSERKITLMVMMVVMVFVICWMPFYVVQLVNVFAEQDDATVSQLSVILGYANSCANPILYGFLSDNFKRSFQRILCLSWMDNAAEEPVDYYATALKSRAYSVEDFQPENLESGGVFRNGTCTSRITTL

[8] = test system: NCI-H69 cells; assay: In vivo growth assay, NCI-H69 small cell lung carcinoma xenograft in nude mice; design: species or system human; settings: female athymic nude mice, qwk×3, i.v.
Procedure: The mice were housed in microisolators on a 12-hour light cycle at 22° C. (72° F.) and 40%-60% humidity.
Mice were implanted subcutaneously in the flank with 5×10^6 cells of NCI-H69 cells along with an equal volume of Matrigel® Matrix (BD Biosciences, San Jose, Calif., U.S.A.), a solubilized basement membrane preparation extracted from EHS mouse sarcoma, a tumor rich in ECM proteins. The tumors were monitored initially twice weekly and then daily as the neoplasms reached the desired size of approximately 100 mm^3, (100 mg). When the small cell lung carcinomas attained the desired size in calculated tumor weight, the animals were pair-matched on Day 1 into various treatment groups. The estimated tumor weight was calculated using the formula:
[formula] where w=width and l=length, both measured in mm, of a small cell lung carcinoma.
Animals with tumors were then subject to either no treatment at all, treatment with a vehicle control (either saline or water), treatment with a camptothecin only control (7.5 mg/kg) or treatment with a compound according to Formula I or II as discussed above. All treatments were administered intravenously.

[9] = test system: NCI-H345 cells; assay: In vivo growth assay, NCI-H345 small cell lung carcinoma xenograft in nude mice; design: species or system human; settings: female athymic nude mice, qwk×3, i.v.; 165.6, 138, 55.2 mg/kg
Excerpt: FIG. 3: Effects of Example 5C against small cell lung carcinoma tumor model H345 SCLC in female athymic nude mice.
(§2) In other experiments, animals were implanted with human xenografts derived from NCI-H345 cells (human small cell lung carcinoma; […]), A549 cells (non-small cell lung carcinoma), MDA-MB-231 cells (breast cancer) and K562 cells (human chronic myelogenous leukemia; […]) and then subjected to treatment with the compounds of Formula I or II and the appropriate controls as described herein.

[10] = test system: K562 cells; assay: In vivo growth assay, K562 human chronic myelogenous leukemia xenograft in nude mice; settings: female athymic nude mice, qwk×3, i.v.; 165.6, 138, 55.2 mg/kg
Excerpt: FIG. 2: Effects of Example 5C against tumor model human chronic myelogenous leukemia K562 in female athymic nude mice.
as §2

| Molecule | half-life [1] | Ki [2] | Ki [3] | Ki [4] | half-life [5] | Ki [6] | Ki [7] | tumor growth in vivo, NCI-H69 xenograft (FIG. 1) [8] | tumor growth in vivo, H345 small cell lung carcinoma xenograft [9] | tumor growth in vivo, K562 human chronic myelogenous leukemia xenograft [10] |
| --- | --- | --- | --- | --- | --- | --- | --- | --- | --- | --- |
| CC[C@@H]1NC(=O)[C@H](CCCCN)NC(=O)[C@@H](Cc2c[nH]c3ccccc23)NC(=O)[C@H](Cc2ccc(O)c(I)c2)NC(=O)[C@@H](NC(=O)[C@@H](Cc2ccc(O)cc2)NC(=O)[C@@H](Cc2ccc(O)cc2)NC(=O)[C@H](CCCCN)NC(=O)COCCOCCNC(=O)COCCOCCNC(=O)COCCOCCNC(=O)COCCOCCNC(=O)CCCC(=O)NCC(=O)O[C@]2(CC)C(=O)OCc3c2cc2n(c3=O)Cc3cc4ccccc4nc3-2)CSSC[C@@H](C(=O)N[C@H](C(N)=O)[C@@H](C)O)NC1=O [Example 3, Camptothecin-rvGly-Glut-(Doc)4-Lys-D-Tyr-D-Tyr-c(Cys-3-(I)Tyr-D-Trp-Lys-Abu-Cys)-Thr-NH2] ({X1-Gly-Glutaryl-AEEA-AEEA-AEEA-AEEA}-K[dY][dY]C[Tyr(3-I)][dW]K[Abu]CT-NH2; disulfide 4-9) | 3.8 h | 0.1 nM | 3.86 nM | 94 nM | 5.7 h | ≥ 1000 nM | ≥ 1000 nM | – | – | – |
| CC[C@@]1(OC(=O)CNC(=O)CCCC(=O)NCCOCCOCC(=O)NCCOCCOCC(=O)NCCOCCOCC(=O)NCCOCCOCC(=O)N[C@@H](CCCCN)C(=O)N[C@H](Cc2ccc(O)cc2)C(=O)N[C@H](Cc2ccc(O)cc2)C(=O)N[C@H]2CSSC[C@@H](C(N)=O)NC(=O)[C@H]([C@@H](C)O)NC(=O)[C@H](CCCCN)NC(=O)[C@@H](Cc3c[nH]c4ccccc34)NC(=O)[C@H](Cc3ccccc3)NC(=O)[C@H](Cc3ccccc3)NC2=O)C(=O)OCc2c1cc1n(c2=O)Cc2cc3ccccc3nc2-1 [Example 4, Camptothecin-rvGly-Glut-(Doc)4-Lys-D-Tyr-D-Tyr-c(Cys-Phe-Phe-D-Trp-Lys-Thr-Cys)-NH2] ({X1-Gly-Glutaryl-AEEA-AEEA-AEEA-AEEA}-K[dY][dY]CFF[dW]KTC-NH2; disulfide 4-10) | 3.2 h | 9.38 nM | 481 nM | ≥ 1000 nM | 4.4 h | ≥ 1000 nM | ≥ 1000 nM | – | – | – |
| Camptothecin-rvD-Asp-Suc-(Doc)4-Aepa-D-Phe-c(Cys-Tyr-D-Trp-Lys-Abu-Cys)-Thr-NH2 Camptothecin-rvAsp-Suc-(Doc)4-Aepa-D-Phe-c(Cys-Tyr-D-Trp-Lys-Abu-Cys)-Thr-NH2 [Example 5B] | – | – | – | – | – | – | – | Suppression of tumor growth | – | – |
| Camptothecin-rvD-Asp-Suc-(Doc)4-Aepa-D-Phe-c(Cys-Tyr-D-Trp-Lys-Abu-Cys)-Thr-NH2 [Example 5C] | – | – | – | – | – | – | – | Suppression of tumor growth | Suppression of tumor growth; also recorded: suppressed growth | Suppression of tumor growth; also recorded: suppressed growth |
